Results reported in publication PMC11945475, “Nasal Administration of a Nanoemulsion Based on Methyl Ferulate and Eugenol Encapsulated in Chitosan Oleate: Uptake Studies in the Central Nervous System” (Pharmaceutics, 2025).
Like-named read-outs stand apart in the source and are kept apart here.

Columns and labels:
[1] = for remaining percentage (residual % content) in NE: 672 h; for content in CS-OA NE used for cellular and in vivo studies / loading in NE: CS-OA NE; for final concentration in NE: loaded in CS-OA NE, immediately after preparation, four batches
Method: The eugenol and Fer-Me quantification was performed using an HPLC apparatus, coupled with a UV-Vis Variable Wavelength Detector equipped with a deuterium lamp with a wavelength accuracy of ±1 nm (Agilent 1100 Series, model G1314A, Santa Clara, CA, USA). The mobile phase was constituted by a mixture of CH3CN and H2O 38:62 (v/v) acidified with formic acid at pH 3.25, the flow rate was maintained at 1 mL/min, and separations were performed at room temperature on a 150 mm × 4.6 mm, […]. SUPELCOSIL^TM LC-18 endcapped silica column (Supelco®, Merck, Milan, Italy). Eugenol was detected at a wavelength of 210 nm, while Fer-Me was detected at 320 nm. The injection volume was 20 µL for each sample. […] An ANOVA was performed to assess the feasibility of averaging the peak area values across three calibration curves for both the analytes. […] Both standard curve and NE samples were injected after dilution in a mixture of mobile phase and acetate buffer (5 mM); every analysis on each sample was done in triplicate.
The yield of the process was verified by quantifying by HPLC analysis Fer-Me and eugenol loaded into the CS-OA NEs immediately after preparation and after 1, 2, and 4 weeks of storage at 4 °C. […] Fer-Me and eugenol were quantified by the HPLC method into the external aqueous phase, passing through the membrane as permeate.

RPMI 2650 cells = system: RPMI 2650 cells
Method: RPMI 2650 cells were used to evaluate in vitro the possible CS-OA NE cytotoxicity as well as Fer-Me and eugenol cell uptake.
RPMI 2650 cells were cultured on 75 cm^2 polystyrene cell culture flasks in Advanced Minimum Essential Medium (A-MEM), which was supplemented with 10% fetal bovine serum (FBS), 2 mM L-glutamine, 100 IU/mL penicillin, and 100 μg/mL streptomycin. The cells were maintained in a humidified atmosphere containing 5% CO2 at 37 °C. Cells were split twice using trypsin-EDTA at 37 °C before being seeded and allowed to grow to approximately 90% confluence for 3-(4,5-dimethylthiazol-2-yl)-2,5-diphenyltetrazolium (MTT) assays and uptake studies. Cell counting was performed using Scepter™ 2.0 handheld automated cell counter (Merck Millipore, Milan, Italy).
RPMI 2650 cells were seeded in a 12-well plate at a density of 8 × 10^4 cells/well containing 2 mL of culture A-MEM. […] The corresponding solution of pure compounds (approximated to 250 µM and 600 µM concentrations of Fer-Me and eugenol, respectively), and raw Fer-Me (corresponding to a 250 µM solution) added directly to the wells as powder, were used as comparison. In particular, 2 mL of diluted CS-OA NE or the corresponding solution of pure compounds was added to the test wells, and the plate was incubated for pre-determined interval times (10, 30, and 60 min) in a humidified 5% CO2 atmosphere at 37 °C. As for raw Fer-Me incubation, 0.1 mg was accurately weighed (analytical balance Sartorius CP 225D), added to each well containing 2 mL of complete A-MEM, and incubated at 37 °C in an orbital shaker for the same pre-determined interval times above indicated. All media were removed at the end of the incubation. […] After thawing, the lysate was centrifuged twice (16,000× g for 10 min) and the supernatant was immediately injected into the HPLC apparatus (20 μL) to quantify Fer-Me and eugenol (see below). The final number of cells was evaluated on untreated wells after their trypsinization and counted using the Scepter^TM 2.0 automated cell counter (Merck Millipore, Milan, Italy). Each reported value represents the mean of three independent incubation experiments expressed as nanomoles of compounds for 10^6 cells. The uptake efficiencies were calculated as the compound amount quantified in cell lysate 10 min after the onset of the incubation compared to the initial compound amount incubated in cell media (%). […]
The quantification of eugenol and Fer-Me was performed by using a modular HPLC system composed of a pump (model LC-40D), DAD detector (model SPD-M40, Shimadzu, Kyoto, Japan), as well as an injection valve with a 20 μL sample loop (model 7725; Rheodyne, IDEX, Torrance, CA, USA). […]

In the case of C=CCc1ccc(O)c(OC)c1 [eugenol], the “remaining percentage (residual % content) in NE” value [1] is reported as “about 71%”, the “content in CS-OA NE used for cellular and in vivo studies” value [1] is reported as ~12 mM and the “loading in NE” value [1] is reported as ~2 mg/mL. The “final concentration in NE” value [1] was 260.0 ± 0.5 µg per 100 µL of NE, the intracellular amount (RPMI 2650 cells; human, 10 min, 600 µM) was 60.80 ± 5.09 nmol/10^6 cells and the “uptake efficiency at 10 min” value (RPMI 2650 cells; human, 10 min, 600 µM) was 0.77 ± 0.10%. It also gave an intracellular amount (RPMI 2650 cells; human, 60 min, 600 µM) of 57.41 ± 2.80 nmol/10^6 cells.
In the case of COC(=O)/C=C/c1ccc(O)c(OC)c1 [Fer-Me, methyl ferulate], the “remaining percentage (residual % content) in NE” value [1] is reported as “about 81%”, the “content in CS-OA NE used for cellular and in vivo studies” value [1] is reported as “about 5 mM” and the “loading in NE” value [1] is reported as “about 1 mg/mL”. For the same compound, the “final concentration in NE” value [1] was 123.0 ± 0.2 µg per 100 µL of NE and the “uptake efficiency at 10 min” value (RPMI 2650 cells) was 0.80 ± 0.12%.
